Test results published in patent publication US10987317B2, “Inhibition of glutaminase C” (Cornell University, priority 2009, dated 2021).

Columns and labels:
Type in all cases: cell-based
[1] = test system: NIH 3T3 cells transfected with oncogenic Dbl; assay: Dbl-induced cellular transformation (focus-forming assays, growth in low serum, soft agar)
Protocol: FIGS. 1A-E illustrate that the small molecule 968 inhibiting cellular transformation. […] Cells were fixed and stained with crystal violet for counting of foci. Right: 968 was serially diluted (10, 5, 2.5, and 1.25 μM) and evaluated for its ability to inhibit focus formation. […] After 6 days, the cells are counted. 100% represents the number of Dbl-transformed cells counted in the absence of 968 (27.5×10^4 cells). Data represent the average of 3 experiments (±s.d.). […] At the indicated times, the cells are counted. Data represent the average of 3 experiments (±s.d.).
(§1) FIGS. 2A-G illustrate effects of 968 on the transforming activity of constitutively active Rho GTPases and human breast cancer cells. […] Cells are scored after 14 days and plotted as the percentage of the total number of colonies greater than […] in diameter. Data represent the average of 3 experiments (±s.d.). […] Data represent the average of 3 experiments (±s.d.). […] Data represent the average of 3 experiments (±s.d.). […] After 24 hours at 37° C. the migratory cells are fixed, stained with GIEMSA, and counted. Data represent the average of 3 experiments (±s.d.). […] Data represent the average of 3 experiments (±s.d.). […] Data represent the average of 3 experiments (±s.d.). […] Data represent the average of 3 experiments (±s.d.).
FIGS. 5A-C illustrate comparative abilities of 968 and other benzo[a]phenanthrldinones to inhibit the transforming activity of oncogenic Dbl and H-Ras. […] Histograms show the relative levels of Dbl-induced focus formation for the different treatments, compared to Dbl-induced focus formation measured in the presence of DMSO (i.e. solvent control). Data represent the average of 3 experiments (mean±s.d.). […] Histograms show the relative levels of Ras(G12V)-induced focus formation measured for the different treatments, compared to Ras(G12V)-induced focus formation measured in the presence of DMSO (solvent control). Data represent the average of 3 experiments (mean±s.d.). FIG. 5C NIH 3T3 cells stably expressing H-Ras(G12V) that are cultured in DMEM supplemented with 1% calf serum, with the indicated amounts of 968. After 6 days, cells are trypsinized and counted. 100% represents the number of cells counted in the absence of 968, i.e. 26×10^4 cells. Data represent the average of 3 experiments (mean±s.d.).

[2] = test system: NIH 3T3 cells stably expressing Cdc42(F28L), Rac(F28L), RhoC(F30L); assay: Transforming activity of constitutively active Rho GTPase mutants; conditions: 10 μM
Protocol: as §1

[3] = molecular target: T1, V5-tagged GAC from Dbl-transformed NIH 3T3 cells (Mus musculus, UniProt D3Z7P3); assay: GA activity of immunoprecipitated V5-GAC; conditions: absence of phosphate
T1 construct: expressed in transfected cells; host or cells: NIH 3T3 cells stably expressing oncogenic Dbl
T1 sequence (D3Z7P3 55-603 isoform D3Z7P3-2 limits assumed): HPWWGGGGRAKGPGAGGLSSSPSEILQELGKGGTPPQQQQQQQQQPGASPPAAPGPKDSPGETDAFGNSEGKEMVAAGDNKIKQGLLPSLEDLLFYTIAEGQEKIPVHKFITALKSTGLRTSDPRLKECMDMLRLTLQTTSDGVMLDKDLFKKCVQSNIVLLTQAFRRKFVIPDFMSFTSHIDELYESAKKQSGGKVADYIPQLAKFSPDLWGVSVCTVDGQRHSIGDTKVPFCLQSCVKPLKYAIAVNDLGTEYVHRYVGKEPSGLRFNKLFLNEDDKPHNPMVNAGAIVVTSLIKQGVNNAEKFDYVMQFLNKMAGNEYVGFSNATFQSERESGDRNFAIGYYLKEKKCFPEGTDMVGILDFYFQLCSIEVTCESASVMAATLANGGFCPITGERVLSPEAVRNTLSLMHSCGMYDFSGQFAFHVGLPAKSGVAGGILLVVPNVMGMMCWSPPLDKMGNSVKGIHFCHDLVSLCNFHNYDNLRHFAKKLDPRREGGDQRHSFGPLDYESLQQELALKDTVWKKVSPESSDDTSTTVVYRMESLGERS
Excerpt: FIGS. 4A-E illustrate the role of glutaminase C activity in cellular transformation. […] Data represent the average of 3 experiments (±s.d.). […] Data represent the average of 3 experiments (±s.d.). […] 100% represents the activity measured in untreated Dbl-transformed cells. The data represent the average of 2 experiments. […] 100% represents the activity measured in untreated SKBR3 cells. The data represent the average of 2 experiments. […] Data represent the average of 3 experiments (±s.d.).
NIH 3T3 cells or NIH 3T3 cells stably expressing the Dbl oncogene, were transiently transfected with DNA encoding a V5-tagged GAC. The cells were then harvested and the ectopically expressed GAC was isolated by immunoprecipitation via the V5 tag. The VS-GAC obtained from one of the Dbl samples was additionally treated with alkaline phosphtase under dephosphorylation conditions. The samples were then assayed for glutaminase activity in the absence of phosphate (top panel) and the relative expression levels of VS-GAC was determined by Western blotting using an anit-V5 antibody (bottom panel).
NIH 3T3 cells stably expressing oncogenic Dbl were transiently transfected with DNA encoding VS-tagged GAC, and cells were treated with either 968 or BA-968 ([…]) as indicated for 48 hours. The cells were then harvested and the ectopically expressed GAC was isolated by immunoprecipitation via the V5 tag. The samples were then assayed for glutaminase activity in the absence of phosphate (top panel) and the relative expression levels of VS-GAC was determined by Western blotting using an anti-V5 antibody (bottom panel).

CN(C)c1ccc(C2Nc3ccc4ccccc4c3C3=C2C(=O)CC(C)(C)C3)cc1Br (stereo not drawn) [Compound 968, 5-[3-bromo-4-(dimethylamino)phenyl]-2,2-dimethyl-2,3,5,6-tetrahydrobenzo[a]]
Dbl-induced colony formation in soft agar ([1]; 10 μM): blocked
reversal of 968-inhibition by cell-permeable analog of α-ketoglutarate ([1]; focus-formation, 10 μM 968 with 7 μM dimethyl α-ketoglutarate): circumvented
concentration at which active in blocking Dbl-induced transformation ([1]; focus-forming assays or growth in low serum): 1 to 10 µM
colony formation in soft-agar [2]: blocking
growth under low serum conditions ([2]; 1% calf serum): blocking
growth to high density ([2]; 10% calf serum, 6 days): blocking
invasive activity ([2]; Matri-gel, 24 hours): inhibiting
GA activity IPed from Dbl-transformed cells ([3]; 10 μM): inhibited
GAC activity after treatment of cells (FIG. 19) ([3]; cells treated 10 mM for 48 hours): effective inhibitors
